Our source for the solubility and MIC values is patent US9181234B2, “Antibacterial compounds” (priority 2010, dated 2015).

Molecules are shown by their SMILES. Values after ≈ are worked out from the molar mass of the structure shown.

A short description of one series: physchem. Particulars: pH 7.4, aqueous buffer, kinetic from dmso stock. The method, boiled down: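 DMSO doubling dilutions were diluted twenty-fold into 100 mM citrate (pH 4), PBS (pH 7.4) or carbonate-bicarbonate (pH 9). After 24 h equilibration at room temperature, absorbance was read at 620 nm. The reported value is the highest concentration without measurable precipitate.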

The test system of series [1] is Staphylococcus aureus (Isolate ID ATCC 29213). The series can be described thus: Antibacterial activity, MIC, S. aureus. It counts as cell-based. To be noted: Staphylococcus aureus, ATCC29213, Gram positive strain; broth microdilution or agar dilution. The method, boiled down:
(§1)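 Readout is the MIC, established according to CLSI standard M7-A7 using either agar dilution or broth microdilution.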
(Dilution methods test growth across graded concentrations, often in twofold steps.)

In series [2] the test system is Enterococcus faecalis (Isolate ID ATCC 29212). As to the kind of experiment: Antibacterial activity, MIC, E. faecalis. It counts as cell-based. Particulars: Enterococcus faecalis, ATCC29212; Gram positive strain; broth microdilution or agar dilution. Here is the method:
Bacterial Assay: Determination of Antibacterial Activity
Compounds of the invention were tested for antimicrobial activity by susceptibility testing in liquid or on solid media. MICs for compounds against each strain were determined by the broth microdilution or agar dilution method according to the guidelines of the Clinical Laboratories and Standards Institute, formerly the National Committee for Clinical Laboratory Standards (Clinical Laboratories and Standards Institute. Methods for Dilution Antimicrobial Susceptibility Tests for Bacteria That Grow Aerobically; Approved Standard—Seventh Edition. Document M7-A7. CLSI, Wayne, Pa., 2006; Clinical Laboratories and Standards Institute. The gram positive bacterial strains tested include S. aureus (Staphylococcus aureus (Isolate ID ATCC 29213)), E. faecalis (Enterococcus faecalis (Isolate ID ATCC 29212)) and S. pyogenes (Streptococcus pyogenes (Isolate ID ATCC 51339)). The gram negative bacterial strains tested include H. influenzae (Haemophilus influenzae (Isolate ID ATCC 49247))

In series [3] the test system is Streptococcus pyogenes (Isolate ID ATCC 51339). As to the kind of experiment: Antibacterial activity, MIC, S. pyogenes. To be noted: Streptococcus pyogenes, ATCC51339, Gram positive strain; broth microdilution or agar dilution. It counts as cell-based. The method, boiled down: as §1
In series [4] the test system is Haemophilus influenzae (Isolate ID ATCC 49247). As to the kind of experiment: Antibacterial activity, MIC, H. influenzae. To be noted: Haemophilus influenzae, ATCC49247; Gram negative strain; broth microdilution or agar dilution. It counts as cell-based. Summed up: as §1

As a reminder, the solubility is the dissolved amount per volume that the medium holds. Higher therefore signals a readily soluble substance. As to `CCNC(=O)Nc1nc2cc(-c3cnc(N4CCCCC4(C)C(=O)O)nc3)cc(-c3ccccn3)c2s1` (stereo not shown) [Compound 2], the results for the solubility at 24 h in “physchem” (Solubility (pH 7.4)) and in “physchem” (Solubility Range) were 0.00625 mg/mL (≈ 12.1 µM) and under 0.0125 mg/mL, respectively. In addition, the MIC lay in the range of 0.25 to 1 mg/L (≈ 0.483 to 1.93 µM) in series [1], 0.25 to 1 mg/L (≈ 0.483 to 1.93 µM) in series [2], 0.25 to 1 mg/L (≈ 0.483 to 1.93 µM) in series [3] and 1 to 16 mg/L (≈ 1.93 to 30.9 µM) in series [4].
As for `CCNC(=O)Nc1nc2cc(-c3cnc(N4CCC(O)C(C)(C(=O)O)C4)nc3)cc(-c3ccccn3)c2s1` (stereo not shown) [Compound 3], the solubility at 24 h in “physchem” (Solubility (pH 7.4)) is 0.4 mg/mL (≈ 750 µM); in the series “physchem” (Solubility Range) it was 0.4 to 0.8 mg/mL (≈ 750 to 1500 µM). The MIC in series [1] is 1 to 16 mg/L (≈ 1.87 to 30 µM); in series [2], 0.25 to 1 mg/L (≈ 0.469 to 1.87 µM); in series [3], at most 0.25 mg/L; in series [4] it was 1 to 16 mg/L (≈ 1.87 to 30 µM).
With `CCNC(=O)Nc1nc2cc(-c3cnc(N4CCC(C)(C(=O)O)CC4)c(C)c3)cc(-c3ccccn3)c2s1` [Compound 5], the solubility at 24 h in the series “physchem” (Solubility (pH 7.4)) is at least 0.8 mg/mL; in “physchem” (Solubility Range) it was over 0.8 mg/mL. The MIC is at most 0.25 mg/L in series [1], at most 0.25 mg/L in series [2], at most 0.25 mg/L in series [3] and over 16 mg/L in series [4].
In the case of `CCNC(=O)Nc1nc2cc(-c3cnc(N4CCC(C)(C(=O)O)CC4)nc3)cc(-c3cc(C)ccn3)c2s1` [Compound 6, 1-[5-[2-(ethylcarbamoylamino)-7-(4-methyl-2-pyridyl)-1,3-benzothiazol-5-yl]pyrimidin-2-yl]-4-methyl-piperidine-4-carboxylic acid], the solubility at 24 h in “physchem” (Solubility (pH 7.4)) was 0.4 mg/mL (≈ 752 µM); in “physchem” (Solubility Range), 0.4 to 0.8 mg/mL (≈ 752 to 1500 µM). The MIC in series [1] is at most 0.25 mg/L; in series [2] it was at most 0.25 mg/L; in series [3] it was at most 0.25 mg/L; in series [4], 1 to 16 mg/L (≈ 1.88 to 30.1 µM).
For the molecule `CCNC(=O)Nc1nc2cc(-c3cnc(N4CCC(C)(C(=O)O)CC4)nc3)cc(-c3ccc(OC)c(OC)n3)c2s1` [Compound 7], the solubility at 24 h in “physchem” (Solubility (pH 7.4)) is 0.4 mg/mL (≈ 692 µM); in “physchem” (Solubility Range) it was 0.4 to 0.8 mg/mL (≈ 692 to 1380 µM). Besides, the MIC was at most 0.25 mg/L in series [1], at most 0.25 mg/L in series [2], at most 0.25 mg/L in series [3] and 0.25 to 1 mg/L (≈ 0.433 to 1.73 µM) in series [4].
Consider `CCNC(=O)Nc1nc2cc(-c3cnc(N4CCC(C)(C(=O)O)CC4)nc3)cc(-c3nccc(OC)n3)c2s1` [Compound 8], for which the solubility at 24 h is 0.1 mg/mL (≈ 182 µM) in the series “physchem” (Solubility (pH 7.4)) and 0.0125 to 0.4 mg/mL (≈ 22.8 to 729 µM) in the series “physchem” (Solubility Range). The MIC is at most 0.25 mg/L in series [1], at most 0.25 mg/L in series [2], at most 0.25 mg/L in series [3] and 1 to 16 mg/L (≈ 1.82 to 29.2 µM) in series [4].
In the case of `CCNC(=O)Nc1nc2cc(-c3cnc(N4CCC(C)(C(=O)O)C(C)C4)nc3)cc(-c3ccccn3)c2s1` (stereo not shown) [Compound 9], the solubility at 24 h was at least 0.8 mg/mL in “physchem” (Solubility (pH 7.4)) and over 0.8 mg/mL in “physchem” (Solubility Range). Also, the MIC in series [1] is at most 0.25 mg/L; in series [2], at most 0.25 mg/L; in series [3] it was at most 0.25 mg/L; in series [4], 1 to 16 mg/L (≈ 1.88 to 30.1 µM).
As to `CCNC(=O)Nc1nc2cc(-c3cnc(N4CCC(C)(C(=O)O)CC4)nc3)cc(-c3cc(F)ccn3)c2s1` [Compound 10], the solubility at 24 h is 0.1 mg/mL (≈ 187 µM) in the series “physchem” (Solubility (pH 7.4)) and 0.0125 to 0.4 mg/mL (≈ 23.3 to 747 µM) in “physchem” (Solubility Range). Also, the MIC in series [1] was at most 0.25 mg/L; in series [2], at most 0.25 mg/L; in series [3], at most 0.25 mg/L; in series [4] it was 1 to 16 mg/L (≈ 1.87 to 29.9 µM).
As for `CCNC(=O)Nc1nc2cc(-c3cnc(N4CCC(C)(C(=O)O)CC4)nc3)cc(CC)c2s1` [Compound 37, 1-{5-[7-Ethyl-2-(3-ethyl-ureido)-benzothiazol-5-yl]-pyrimidin-2-yl}-4-methyl-piperidine-4-carboxylic acid], the MIC was 0.25 to 1 mg/L (≈ 0.534 to 2.13 µM) in series [1], at most 0.25 mg/L in series [2], 1 to 16 mg/L (≈ 2.13 to 34.1 µM) in series [3] and over 16 mg/L in series [4].
